Measurements from PubChem BioAssay AID2060506 (Molecular Pharmacology Branch, DTP, NCI, 2025).
“And” between values parts separate entries of the source, which are not always exact repeats. Equal entries are not always repeated.

Tested on: 598228-144-R-J1-PDC complex spheroid viability
Assay: Anticancer human tumor 598228-144-R-J1-PDC patient-derived serous endometrial adenocarcinoma cell line growth inhibition [GQUAD]
Conditions: for viability, T/C: stronger effect = lower value
Outline: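 Multi-cell-type spheroids of tumor cells with HUVEC and mesenchymal stem cells, treated with drug combinations. Concentrations descend in half-log steps from near clinical Cmax, or from 10 microM where Cmax is unknown; viability read-out.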

[1] = curve of first compound, second compound 0.0316 µM
[2] = curve of first compound, second compound 0.1 µM
[3] = curve of first compound, second compound 0.316 µM
[4] = curve of first compound, second compound 1 µM
[5] = curve of first compound, second compound 3.16 µM
[6] = curve of first compound, second compound 10 µM
[7] = second compound 0.0316 µM, first compound 0.0316 µM
[8] = second compound 0.0316 µM, first compound 0.1 µM
[9] = second compound 0.0316 µM, first compound 0.316 µM
[10] = second compound 0.0316 µM, first compound 1 µM
[11] = second compound 0.0316 µM, first compound 3.16 µM
[12] = second compound 0.0316 µM, first compound 10 µM
[13] = second compound 0.1 µM, first compound 0.0316 µM
[14] = second compound 0.1 µM, first compound 0.1 µM
[15] = second compound 0.1 µM, first compound 0.316 µM
[16] = second compound 0.1 µM, first compound 1 µM
[17] = second compound 0.1 µM, first compound 3.16 µM
[18] = second compound 0.1 µM, first compound 10 µM
[19] = second compound 0.316 µM, first compound 0.0316 µM
[20] = second compound 0.316 µM, first compound 0.1 µM
[21] = second compound 0.316 µM, first compound 0.316 µM
[22] = second compound 0.316 µM, first compound 1 µM
[23] = second compound 0.316 µM, first compound 3.16 µM
[24] = second compound 0.316 µM, first compound 10 µM
[25] = second compound 1 µM, first compound 0.0316 µM
[26] = second compound 1 µM, first compound 0.1 µM
[27] = second compound 1 µM, first compound 0.316 µM
[28] = second compound 1 µM, first compound 1 µM
[29] = second compound 1 µM, first compound 3.16 µM
[30] = second compound 1 µM, first compound 10 µM
[31] = second compound 3.16 µM, first compound 0.0316 µM
[32] = second compound 3.16 µM, first compound 0.1 µM
[33] = second compound 3.16 µM, first compound 0.316 µM
[34] = second compound 3.16 µM, first compound 1 µM
[35] = second compound 3.16 µM, first compound 3.16 µM
[36] = second compound 3.16 µM, first compound 10 µM
[37] = second compound 10 µM, first compound 0.0316 µM
[38] = second compound 10 µM, first compound 0.1 µM
[39] = second compound 10 µM, first compound 0.316 µM
[40] = second compound 10 µM, first compound 1 µM
[41] = second compound 10 µM, first compound 3.16 µM
[42] = second compound 10 µM, first compound 10 µM
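Further: spheroids exposed to the agents for one week before reading.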
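Wherever viability, T/C is given: percent of vehicle DMSO control viability so 100% = untreated growth.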

Cc1cccc(N(C)C(=O)C2C(O)CCN2c2nc(C)cc(C(F)(F)F)c2C#N)c1 (stereo not given) + Cc1cnc(CNC(=O)c2c(=O)c3ccc(N4CCCN(C)CC4)nc3n3c2sc2ccccc23)cn1
IC50 [1]: > 10000 nM | IC50 [2]: > 10000 nM | IC50 [3]: > 10000 nM | IC50 [4]: > 10000 nM | IC50 [5]: > 10000 nM | IC50 [6]: < 31.6 nM | viability, T/C [7]: 92.7% | viability, T/C [8]: 83.7% | viability, T/C [9]: 91% | viability, T/C [10]: 99% | viability, T/C [11]: 112% | viability, T/C [12]: 91.4% | viability, T/C [13]: 76.8% | viability, T/C [14]: 69.3% | viability, T/C [15]: 64.4% | viability, T/C [16]: 67.9% | viability, T/C [17]: 86.6% | viability, T/C [18]: 66.5% | viability, T/C [19]: 63.2% | viability, T/C [20]: 66.6% | viability, T/C [21]: 70.3% | viability, T/C [22]: 63.6% | viability, T/C [23]: 61.3% | viability, T/C [24]: 60.2% | viability, T/C [25]: 68.9% | viability, T/C [26]: 62.5% | viability, T/C [27]: 58.7% | viability, T/C [28]: 61.9% | viability, T/C [29]: 58.3% | viability, T/C [30]: 60.5% | viability, T/C [31]: 52.4% | viability, T/C [32]: 58.3% | viability, T/C [33]: 57.9% | viability, T/C [34]: 44.3% | viability, T/C [35]: 58.7% | viability, T/C [36]: 50.5% | viability, T/C [37]: 55.8% | viability, T/C [38]: 45.7% | viability, T/C [39]: 37.8% | viability, T/C [40]: 46% | viability, T/C [41]: 66.1% | viability, T/C [42]: 36.2%

CC(C)(O)C1CCC(Nc2ccc3ncc(-c4cccc(C(F)(F)F)c4)n3n2)CC1 (stereo not given) + Cc1[nH]c2ccc(F)cc2c1-c1nc2c3cccnc3c3ncccc3c2[nH]1
IC50 [1]: 2400 nM | IC50 [2]: 2370 nM | IC50 [3]: 2240 nM | IC50 [4]: 1290 nM | IC50 [5]: < 31.6 nM | IC50 [6]: 1330 nM | viability, T/C [7]: 106% | viability, T/C [8]: 112% | viability, T/C [9]: 109% | viability, T/C [10]: 86.5% | viability, T/C [11]: 38.8% | viability, T/C [12]: 30.7% | viability, T/C [13]: 133% | viability, T/C [14]: 121% | viability, T/C [15]: 103% | viability, T/C [16]: 95.3% | viability, T/C [17]: 32.2% | viability, T/C [18]: 30.1% | viability, T/C [19]: 77.5% | viability, T/C [20]: 85.5% | viability, T/C [21]: 81.3% | viability, T/C [22]: 93.8% | viability, T/C [23]: 35.2% | viability, T/C [24]: 26.3% | viability, T/C [25]: 58.7% | viability, T/C [26]: 67% | viability, T/C [27]: 57.5% | viability, T/C [28]: 55.8% | viability, T/C [29]: 30.6% | viability, T/C [30]: 24% | viability, T/C [31]: 30.7% | viability, T/C [32]: 40.9% | viability, T/C [33]: 38.8% | viability, T/C [34]: 39.7% | viability, T/C [35]: 23.1% | viability, T/C [36]: 27.7% | viability, T/C [37]: 76.4% | viability, T/C [38]: 52.6% | viability, T/C [39]: 63.2% | viability, T/C [40]: 57.2% | viability, T/C [41]: 25.9% | viability, T/C [42]: 30.7%

CC(=O)O[C@H]1C(=O)[C@@]2(C)[C@H]([C@H](OC(=O)c3ccccc3)[C@]3(O)C[C@H](OC(=O)[C@H](O)[C@@H](NC(=O)c4ccccc4)c4ccccc4)C(C)=C1C3(C)C)[C@]1(OC(C)=O)CO[C@@H]1C[C@@H]2O + CN(C)c1ccc(Nc2c3ccc(NC(=O)CCN4CCCC4)cc3nc3cc(NC(=O)CCN4CCCC4)ccc23)cc1
IC50 [1]: < 31.6 nM | IC50 [2]: < 31.6 nM | IC50 [3]: < 31.6 nM | IC50 [4]: < 31.6 nM | IC50 [5]: < 31.6 nM | IC50 [6]: < 31.6 nM | viability, T/C [7]: 49.4% | viability, T/C [8]: 43.3% | viability, T/C [9]: 44.2% | viability, T/C [10]: 32.9% | viability, T/C [11]: 37.3% | viability, T/C [12]: 53.6% | viability, T/C [13]: 47.6% | viability, T/C [14]: 43.1% | viability, T/C [15]: 35% | viability, T/C [16]: 38.2% | viability, T/C [17]: 33.7% | viability, T/C [18]: 35.4% | viability, T/C [19]: 47.6% | viability, T/C [20]: 40.9% | viability, T/C [21]: 40.7% | viability, T/C [22]: 34.6% | viability, T/C [23]: 47% | viability, T/C [24]: 49.4% | viability, T/C [25]: 51.8% | viability, T/C [26]: 38.7% | viability, T/C [27]: 41.9% | viability, T/C [28]: 42.1% | viability, T/C [29]: 45.4% | viability, T/C [30]: 37% | viability, T/C [31]: 51.6% | viability, T/C [32]: 34.6% | viability, T/C [33]: 41.6% | viability, T/C [34]: 38.9% | viability, T/C [35]: 33.1% | viability, T/C [36]: 38.1% | viability, T/C [37]: 29.1% | viability, T/C [38]: 29.6% | viability, T/C [39]: 29.1% | viability, T/C [40]: 25.2% | viability, T/C [41]: 19.4% | viability, T/C [42]: 30.9%

CC1COCCN1c1cc(C2(S(C)(=N)=O)CC2)nc(-c2ccnc3[nH]ccc23)n1 (stereo not given)
viability, T/C (compound 0.0316 µM): 91.8% and 116% and 77.8% | viability, T/C (compound 0.1 µM): 83.7% and 108% and 99.1% | viability, T/C (compound 0.316 µM): 88.9% and 94.8% and 83.4% | viability, T/C (compound 1 µM): 77.9% and 77.5% and 88.2% | viability, T/C (compound 3.16 µM): 60.3% and 46.7% and 97.7% | viability, T/C (compound 10 µM): 39.3% and 49.6% and 47.7% | IC50 (curve of compound): 5530 nM and 5370 nM and 9390 nM

COc1cccc2c1C(=O)c1c(O)c3c(c(O)c1C2=O)CC(O)(C(=O)CO)CC3OC1CC(N)C(O)C(C)O1 (stereo not given)
viability, T/C (compound 0.0316 µM): 93.1% and 76% and 90.5% | viability, T/C (compound 0.1 µM): 76.3% and 67.8% and 76.2% | viability, T/C (compound 0.316 µM): 78.5% and 73.6% and 72.8% | viability, T/C (compound 1 µM): 41.3% and 36.2% and 49.6% | viability, T/C (compound 3.16 µM): 1.91% and 2.01% and 1.77% | viability, T/C (compound 10 µM): 0.43% and 0.5% and 0.55% | IC50 (curve of compound): 755 nM and 646 nM and 915 nM
